Source: PubChem BioAssay AID1963438 (Molecular Pharmacology Branch, DTP, NCI, 2024)
Values joined by “and” are separate entries in the source; they are usually repeats but may differ in a detail not shown here. Identical values can stand only once.

System: NCI-H510 multicellular tumor spheroid growth, % test/control
Test: Anticancer human tumor NCI-H510 cell line growth inhibition [Asc];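 note: spheroids exposed to agents for 7 days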;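 for viability, T/C: 100% = DMSO vehicle control wells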
Conditions: for viability, T/C: stronger effect = lower value
Outline: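 Complex spheroids combining tumor cells with HUVEC endothelial cells and human MSCs, at 37 degrees C, 5% CO2; agents tested alone or combined, half-log dilutions from at or near clinical Cmax, or 10 microM if Cmax unknown.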

Structure (SMILES): COc1c(OCCCN2CCOCC2)ccc2c3n(c(=NC(=O)c4cnc(N)nc4)nc12)CCN3
- viability, T/C (compound 0.00316 µM): 114% and 91.5% and 87.9%
- viability, T/C (compound 0.01 µM): 97.9% and 112% and 97.6%
- viability, T/C (compound 0.0316 µM): 93.2% and 99.9% and 112%
- viability, T/C (compound 0.1 µM): 93.2% and 52.7% and 108%
- viability, T/C (compound 0.316 µM): 110% and 89.6% and 115%
- viability, T/C (compound 1 µM): 81.5% and 92.5% and 114%
- IC50 (curve of compound): > 1 µM

Structure (SMILES): C=CC(=O)N1CCN(c2nc(=O)n(-c3c(C)ccnc3C(C)C)c3nc(-c4c(O)cccc4F)c(F)cc23)C(C)C1 (configuration not stated) + Cc1c(S(C)(=O)=O)c(-c2cc(F)cc(N3CCN(c4ccc(NS(=O)(=O)c5ccc(NC(CCN6CCC(C(=O)OCCCP(=O)(O)O)CC6)CSc6ccccc6)c(S(=O)(=O)C(F)(F)F)c5)cc4)CC3)c2)c(-c2ccc(Cl)cc2)n1C(C)C
- IC50 (curve of first compound, second compound 0.1 µM): > 10 µM
- IC50 (curve of first compound, second compound 0.316 µM): > 10 µM
- IC50 (curve of first compound, second compound 1 µM): > 10 µM
- IC50 (curve of first compound, second compound 3.16 µM): > 10 µM
- IC50 (curve of first compound, second compound 10 µM): > 10 µM
- viability, T/C (second compound 0.1 µM, first compound 0.0316 µM): 102%
- viability, T/C (second compound 0.1 µM, first compound 0.1 µM): 110%
- viability, T/C (second compound 0.1 µM, first compound 0.316 µM): 124%
- viability, T/C (second compound 0.1 µM, first compound 1 µM): 94.7%
- viability, T/C (second compound 0.1 µM, first compound 3.16 µM): 86.3%
- viability, T/C (second compound 0.1 µM, first compound 10 µM): 98.4%
- viability, T/C (second compound 0.316 µM, first compound 0.0316 µM): 106%
- viability, T/C (second compound 0.316 µM, first compound 0.1 µM): 103%
- viability, T/C (second compound 0.316 µM, first compound 0.316 µM): 115%
- viability, T/C (second compound 0.316 µM, first compound 1 µM): 103%
- viability, T/C (second compound 0.316 µM, first compound 3.16 µM): 109%
- viability, T/C (second compound 0.316 µM, first compound 10 µM): 86%
- viability, T/C (second compound 1 µM, first compound 0.0316 µM): 85.6%
- viability, T/C (second compound 1 µM, first compound 0.1 µM): 89.5%
- viability, T/C (second compound 1 µM, first compound 0.316 µM): 115%
- viability, T/C (second compound 1 µM, first compound 1 µM): 121%
- viability, T/C (second compound 1 µM, first compound 3.16 µM): 98.1%
- viability, T/C (second compound 1 µM, first compound 10 µM): 79.3%
- viability, T/C (second compound 3.16 µM, first compound 0.0316 µM): 80%
- viability, T/C (second compound 3.16 µM, first compound 0.1 µM): 100%
- viability, T/C (second compound 3.16 µM, first compound 0.316 µM): 117%
- viability, T/C (second compound 3.16 µM, first compound 1 µM): 118%
- viability, T/C (second compound 3.16 µM, first compound 3.16 µM): 79.7%
- viability, T/C (second compound 3.16 µM, first compound 10 µM): 108%
- viability, T/C (second compound 10 µM, first compound 0.0316 µM): 102%
- viability, T/C (second compound 10 µM, first compound 0.1 µM): 106%
- viability, T/C (second compound 10 µM, first compound 0.316 µM): 97.8%
- viability, T/C (second compound 10 µM, first compound 1 µM): 100%
- viability, T/C (second compound 10 µM, first compound 3.16 µM): 89.4%
- viability, T/C (second compound 10 µM, first compound 10 µM): 81.9%
